What all share (assay type): cell-based
In experiment [1] the target is human adenosine receptor (adenosine 2a) (Homo sapiens, UniProt P29274). In words: Agonist activity against adenosine 2a receptor subtype (CHO cells, cAMP response element/SPAP reporter). The following applies: transfected CHO cells; effect on basal levels of cAMP reflected by SPAP; ratio to NECA. Here is the method: (§1) Compounds of the invention were tested for in vitro and in vivo biological activity in accordance with the following screens: • (1) Agonist activity against adenosine 2a, adenosine 1 and adenosine 3 receptor subtypes. Agonist selectivity of compounds against other human adenosine receptors was determined using Chinese hamster ovary (CHO) cells transfected with the gene for the relevant human adenosine receptor following a method based on that of Castanon and Spevak, 1994 . The CHO cells were also transfected with cyclic AMP response elements promoting the gene for secreted placental alkaline phosphatase (SPAP) (Wood, 1995). The effect of test compounds was determined by their effects on basal levels of CAMP (A2a) or on forskolin-enhanced cAMP (A1 and A3) as reflected by changes in levels of SPAP. EC50 values for compounds were then determined as a ratio to that of the non-selective agonist N-ethyl carboxamide adenosine (NECA).

The target of experiment [2] is T1, human adenosine receptor (adenosine 1) (Homo sapiens, UniProt P30542).
T1 sequence (P30542 1-326): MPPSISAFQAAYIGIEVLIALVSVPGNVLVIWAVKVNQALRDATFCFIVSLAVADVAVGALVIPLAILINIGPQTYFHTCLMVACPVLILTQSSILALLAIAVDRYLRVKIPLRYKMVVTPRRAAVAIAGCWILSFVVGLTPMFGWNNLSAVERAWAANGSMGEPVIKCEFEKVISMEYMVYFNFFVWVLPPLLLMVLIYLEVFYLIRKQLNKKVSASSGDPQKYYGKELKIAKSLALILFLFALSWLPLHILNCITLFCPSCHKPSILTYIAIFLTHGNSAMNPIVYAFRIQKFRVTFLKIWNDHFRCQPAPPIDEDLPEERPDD
Nature of the experiment: Agonist activity against adenosine 1 receptor subtype (CHO cells, cAMP response element/SPAP reporter). The following applies: transfected CHO cells; effect on forskolin-enhanced cAMP reflected by SPAP; ratio to NECA. Here is the method:
as §1

Experiment [3] deals with T2, human adenosine receptor (adenosine 3) (Homo sapiens, UniProt P0DMS8).
T2 sequence (P0DMS8 1-318): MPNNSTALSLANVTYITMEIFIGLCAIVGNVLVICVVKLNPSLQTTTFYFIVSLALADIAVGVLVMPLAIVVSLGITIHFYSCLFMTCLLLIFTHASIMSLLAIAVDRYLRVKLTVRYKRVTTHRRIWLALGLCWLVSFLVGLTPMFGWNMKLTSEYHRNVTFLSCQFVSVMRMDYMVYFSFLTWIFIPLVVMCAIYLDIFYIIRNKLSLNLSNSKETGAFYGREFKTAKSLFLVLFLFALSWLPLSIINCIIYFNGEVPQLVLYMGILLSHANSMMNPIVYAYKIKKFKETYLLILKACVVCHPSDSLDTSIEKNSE
In words: Agonist activity against adenosine 3 receptor subtype (CHO cells, cAMP response element/SPAP reporter). The following applies: transfected CHO cells; effect on forskolin-enhanced cAMP reflected by SPAP; ratio to NECA. The procedure: as §1

Some results are limits rather than exact numbers.

Sequence of human adenosine receptor (adenosine 2a) (P29274 whole entry): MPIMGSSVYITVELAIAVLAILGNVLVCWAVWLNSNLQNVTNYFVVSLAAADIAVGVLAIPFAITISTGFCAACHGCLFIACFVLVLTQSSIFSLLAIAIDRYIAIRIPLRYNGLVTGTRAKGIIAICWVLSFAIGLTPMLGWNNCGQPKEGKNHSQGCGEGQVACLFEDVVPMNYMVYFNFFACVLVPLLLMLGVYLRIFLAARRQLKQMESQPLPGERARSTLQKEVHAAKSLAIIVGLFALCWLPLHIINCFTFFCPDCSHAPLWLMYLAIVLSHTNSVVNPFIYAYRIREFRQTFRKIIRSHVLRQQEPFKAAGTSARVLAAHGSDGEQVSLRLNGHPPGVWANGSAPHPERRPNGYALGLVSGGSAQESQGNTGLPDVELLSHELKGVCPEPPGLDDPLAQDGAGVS

`N[C@H]1CC[C@H](Nc2nc(NCC(c3ccccc3)c3ccccc3)c3ncn([C@@H]4O[C@H](c5nnc[nH]5)[C@@H](O)[C@H]4O)c3n2)CC1.O=CO` [Example 1, (2R,3R,4S,5R)-2-[2-(trans-4-Amino-cyclohexylamino)-6-(2,2-diphenyl-ethylamino)-purin-9-yl]-5-(4H-[1,2,4]triazol-3-yl)-tetrahydro-furan-3,4-diol formate]: the “A2a; EC50 values as a ratio of that of NECA” value (shortened to “A2a; EC50 values as a ratio”) in experiment [1] is on record as 11.37. Besides, the “A1; EC50 values as a ratio of that of NECA” value (“A1; EC50 values as a ratio” for short) in experiment [2] turned out to be 1098. Further, the “A3; EC50 values as a ratio of that of NECA” value (shortened to “A3; EC50 values as a ratio”) in experiment [3] was greater than 353.
For `Cn1cnc(CCNc2nc(NCC(c3ccccc3)c3ccccc3)c3ncn([C@@H]4O[C@H](c5nnc[nH]5)[C@@H](O)[C@H]4O)c3n2)c1.O=CO` [Example 2, (2R,3R,4S,5R)-2-{6-(2,2-Diphenyl-ethylamino)-2-[2-(1-methyl-1H-imidazol-4-yl)-ethylamino]-purin-9-yl}-5-(4H-[1,2,4]triazol-3-yl)-tetrahydro-furan-3,4-diol formate] the same measures were 1.08, 1003.4 and greater than 430.
Taken in the same sequence, the figures for `O=CO.O[C@@H]1[C@H](O)[C@@H](c2nnc[nH]2)O[C@H]1n1cnc2c(NCC(c3ccccc3)c3ccccc3)nc(N[C@@H]3CCNC3)nc21` [Example 3, (2R,3R,4S,5R)-2-[6-(2,2-Diphenyl-ethylamino)-2-(pyrrolidin-3R-ylamino)-purin-9-yl]-5-(4H-[1,2,4]triazol-3-yl)-tetrahydro-furan-3,4-diol formate] were 10.49, 586.92 and greater than 306.
As to `CC(C)[C@@H](CO)Nc1nc(NCC(c2ccccc2)c2ccccc2)c2ncn([C@@H]3O[C@H](c4nnc[nH]4)[C@@H](O)[C@H]3O)c2n1.O=CO` [Example 4, (2R,3R,4S,5R)-2-[6-(2,2-Diphenyl-ethylamino)-2-(1S-hydroxymethyl-2-methyl-propylamino)-purin-9-yl]-5-(4H-[1,2,4]triazol-3-yl)-tetrahydro-furan-3,4-diol formate], the “A2a; EC50 values as a ratio” value in experiment [1] stood at 3.79. Further, in experiment [2], the “A1; EC50 values as a ratio” value was 670.92. Moreover, the “A3; EC50 values as a ratio” value in experiment [3] is greater than 306.
For `O=CO.O[C@@H]1[C@H](O)[C@@H](c2nnc[nH]2)O[C@H]1n1cnc2c(NCC(c3ccccc3)c3ccccc3)nc(NCCc3ccccn3)nc21` [Example 5, (2R,3R,4S,5R)-2-[6-(2,2-Diphenyl-ethylamino)-2-(2-pyridin-2-yl-ethylamino)-purin-9-yl]-5-(4H-[1,2,4]triazol-3-yl)-tetrahydro-furan-3,4-diol formate] the same measures were 19.3, 3329 and greater than 397.
For `O=CO.O[C@@H]1[C@H](O)[C@@H](c2nnc[nH]2)O[C@H]1n1cnc2c(NCC(c3ccccc3)c3ccccc3)nc(NC3CCCC3)nc21` [Example 6, (2R,3R,4S,5R)-2-[2-Cyclopentylamino-6-(2,2-diphenyl-ethylamino)-purin-9-yl]-5-(4H-[1,2,4]triazol-3-yl)-tetrahydro-furan-3,4-diol formate] the same measures were 16.96, 1627 and greater than 305.
Taken in the same sequence, the figures for `N=C(N)NCCNc1nc(NCC(c2ccccc2)c2ccccc2)c2ncn([C@@H]3O[C@H](c4nnc[nH]4)[C@@H](O)[C@H]3O)c2n1.O=CO` [Example 7, N-{2-[9-[3R,4S-Dihydroxy-5R-(4H-[1,2,4]triazol-3-yl)-tetrahydro-furan-2R-yl]-6-(2,2-diphenyl-ethylamino)-9H-purin-2-ylamino]-ethyl}-guanidine formate] were 19.01, 2577 and greater than 368.
As to `O=CO.OC[C@H](Cc1ccccc1)Nc1nc(NCC(c2ccccc2)c2ccccc2)c2ncn([C@@H]3O[C@H](c4nnc[nH]4)[C@@H](O)[C@H]3O)c2n1` [Example 8, (2R,3R,4S,5R)-2-[6-(2,2-Diphenyl-ethylamino)-2-(1S-hydroxymethyl-2-phenyl-ethylamino)-purin-9-yl]-5-(4H-[1,2,4]triazol-3-yl)-tetrahydro-furan-3,4-diol formate], the “A2a; EC50 values as a ratio” value in experiment [1] is recorded as 26.74. In experiment [2], the “A1; EC50 values as a ratio” value turned out to be 280.97. Besides, the “A3; EC50 values as a ratio” value in experiment [3] is listed as greater than 326.
Taken in the same sequence, the figures for `O=CO.O[C@@H]1[C@H](O)[C@@H](c2nnc[nH]2)O[C@H]1n1cnc2c(NCC(c3ccccc3)c3ccccc3)nc(NCCN3CCCCC3)nc21` [Example 9, (2R,3R,4S,5R)-2-[6-(2,2-Diphenyl-ethylamino)-2-(2-piperidin-1-yl-ethylamino)-purin-9-yl]-5-(4H-[1,2,4]triazol-3-yl)-tetrahydro-furan-3,4-diol formate] were 8.13, 969.8 and greater than 472.

The record behind these values is patent publication EP1090020B1, “2-(PURIN-9-YL)-TETRAHYDROFURAN-3,4-DIOL DERIVATIVES” (GLAXO GROUP LIMITED, priority 1998, dated 1999).
